Earlier results in US20070225210A1, “Therapeutic vaccine compositions for the treatment of type 1 diabetes” (priority 2003, published 2007).

How the values were obtained:
insulin = settings: aqueous formulations, administered subcutaneously, NOD mice
[1] = tested on: individuals with, or at risk of, type 1 diabetes; settings: repeat administration of low doses

| Substance | prevention of the onset of diabetes (NOD mice; aqueous formulations, administered subcutaneously) | protection from the onset of diabetes (NOD mice; immunization) | protection against diabetes (NOD mice; immunization, administered intranasally) | immune response to insulin (insulin) | symptoms of diabetes and insulin-dependency of the patient [1] |
| --- | --- | --- | --- | --- | --- |
| SHLVEALYLVCGERG (Insulin B chain analog) [insulin B chain 9-23, 9-23 fragment of the native insulin B chain] | can prevent the onset of diabetes | protect from the onset of diabetes | partial protection against diabetes | can induce an immune response to insulin |  |
| insulin B chain: native human insulin B chain peptide with cysteinyl residues at positions 7 and 19 |  | protect from the onset of diabetes |  |  | can prevent or reduce the symptoms of diabetes and the insulin-dependency of the patient |
